These results are taken from PubChem BioAssay (NCI).

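Five concentrations, 48 hours, 96-well plates. TGI marks complete inhibition of growth.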

Among the test systems are SNB-19 CNS; 786-0 renal; MDA-N; HOP-62 NSCLC; HCT-116 colon; NCI-H23 lung; M14 melanoma; OVCAR-8 ovarian; COLO 205 colon; SW-620 colon; SF-268 CNS; LOX IMVI melanoma; SF-539 CNS; SK-MEL-5 melanoma; KM12 colon; IGROV1 ovarian; UO-31 renal; HL-60(TB) leukemia; HCC-2998 colon.
What all share (assay): NCI-60 cell line screen, 48 h

On to `C[C@@H](C(=O)O)N1C(c2ccco2)=C(/C(C=O)=C\c2ccco2)C(=O)/C1=C\c1ccco1`, for which the TGI in the experiment on SNB-19 CNS, in the experiment with 786-0 renal, in the experiment on MDA-N, in the experiment with HOP-62 NSCLC, in the experiment on HCT-116 colon and in the experiment on NCI-H23 lung was greater than 100 µM each time. The TGI in the experiment on M14 melanoma, with OVCAR-8 ovarian, in the experiment on COLO 205 colon, in the experiment on SW-620 colon, in the experiment on SF-268 CNS and in the experiment with LOX IMVI melanoma was greater than 100 µM each time. Also, the TGI in the experiment with SF-539 CNS, in the experiment with SK-MEL-5 melanoma, in the experiment on KM12 colon, in the experiment with IGROV1 ovarian, with UO-31 renal and in the experiment on HL-60(TB) leukemia was greater than 100 µM in each case.

In the case of `Cc1cccc(Cl)c1NCC(O)CN1CCN(C)CC1` (stereo not drawn), the TGI in the experiment on SNB-19 CNS, in the experiment on 786-0 renal, in the experiment with MDA-N, in the experiment with HOP-62 NSCLC, with HCT-116 colon and with HCC-2998 colon was greater than 100 µM each time. In addition, the TGI in the experiment with NCI-H23 lung, in the experiment on M14 melanoma, in the experiment on OVCAR-8 ovarian, in the experiment on SW-620 colon, with SF-268 CNS and in the experiment on LOX IMVI melanoma was greater than 100 µM throughout. The TGI in the experiment on SK-MEL-5 melanoma, in the experiment with KM12 colon, in the experiment with IGROV1 ovarian and in the experiment on UO-31 renal was greater than 100 µM in each case.

As to `CC1(C)C2CCC1(C)C(N/C(Sc1ccccc1)=C(/C(Cl)=C(Cl)Cl)[N+](=O)[O-])C2` (stereo not drawn), the TGI in the experiment with SNB-19 CNS turned out to be 43.9 µM; in the experiment on 786-0 renal, 26.9 µM; in the experiment with MDA-N it was 27.6 µM; in the experiment on HOP-62 NSCLC it was 62.9 µM; in the experiment on HCT-116 colon it was 28.8 µM; in the experiment on HCC-2998 colon it was 28.5 µM. Moreover, the TGI in the experiment on NCI-H23 lung turned out to be 27.6 µM; with M14 melanoma, 25.9 µM; in the experiment on OVCAR-8 ovarian, 27.3 µM; in the experiment with SW-620 colon, 24 µM; in the experiment on SF-268 CNS, 24.4 µM; in the experiment with SF-539 CNS it was 26.2 µM. Further, the TGI came to 18.8 µM with KM12 colon and 26 µM in the experiment with UO-31 renal.

Regarding `O=C(/C=C/c1ccc(O)c(O)c1)OCC(OC(=O)/C=C/c1ccc(O)c(O)c1)C(=O)O` (stereo not drawn), the TGI in the experiment with SNB-19 CNS, in the experiment with 786-0 renal, in the experiment with MDA-N, with HOP-62 NSCLC, in the experiment with HCT-116 colon and in the experiment on HCC-2998 colon was greater than 100 µM throughout. The TGI with NCI-H23 lung, with M14 melanoma, in the experiment with OVCAR-8 ovarian, in the experiment on COLO 205 colon, in the experiment on SW-620 colon and in the experiment on SF-268 CNS was greater than 100 µM each time. Also, the TGI with LOX IMVI melanoma, with SF-539 CNS, in the experiment with SK-MEL-5 melanoma, in the experiment with KM12 colon, in the experiment on IGROV1 ovarian and with UO-31 renal was greater than 100 µM in each case.

As for `CC(C)NC(=O)OCc1c2c(n(C)c1COC(=O)NC(C)C)-c1cc(Cl)c(Cl)cc1CC2`, the TGI in the experiment on SNB-19 CNS was greater than 100 µM; in the experiment on 786-0 renal it was greater than 100 µM; in the experiment on MDA-N, greater than 100 µM; in the experiment on HOP-62 NSCLC it was greater than 100 µM; in the experiment on HCT-116 colon, 66.9 µM; with HCC-2998 colon, 32.7 µM. Besides, the TGI with NCI-H23 lung is 87.9 µM; in the experiment on M14 melanoma, 66.6 µM; in the experiment on OVCAR-8 ovarian it was greater than 100 µM; in the experiment on COLO 205 colon, 73.6 µM; in the experiment with SW-620 colon, greater than 100 µM; in the experiment with SF-268 CNS, greater than 100 µM. Further, the TGI was greater than 100 µM in the experiment on LOX IMVI melanoma; greater than 100 µM in the experiment with SF-539 CNS; greater than 100 µM in the experiment on SK-MEL-5 melanoma; 81.7 µM in the experiment on KM12 colon; 96 µM in the experiment with IGROV1 ovarian; greater than 100 µM in the experiment with UO-31 renal.

On to `CNc1ncccc1Nc1cc(=O)n2c3cccnc3n(C)c2c1`, for which the TGI with SNB-19 CNS, with 786-0 renal, with MDA-N, in the experiment with HOP-62 NSCLC, in the experiment with HCT-116 colon and in the experiment with HCC-2998 colon was greater than 100 µM each time. Moreover, the TGI with NCI-H23 lung, with M14 melanoma, in the experiment on OVCAR-8 ovarian, with COLO 205 colon, in the experiment on SW-620 colon and with SF-268 CNS was greater than 100 µM in each case. Moreover, the TGI with LOX IMVI melanoma, in the experiment with SF-539 CNS, in the experiment on SK-MEL-5 melanoma, in the experiment with KM12 colon, in the experiment on IGROV1 ovarian and in the experiment with UO-31 renal was greater than 100 µM in each case.

As to `COc1ccc(CC2COc3cc(OC)cc(OC)c3C2=O)cc1` (stereo not drawn), the TGI in the experiment with SNB-19 CNS was greater than 100 µM; with 786-0 renal, 51.7 µM; in the experiment on MDA-N, greater than 100 µM; in the experiment with HOP-62 NSCLC, 97.1 µM; in the experiment on HCT-116 colon it was 32.7 µM; in the experiment on NCI-H23 lung, greater than 100 µM. In addition, the TGI with M14 melanoma was 78.8 µM; with OVCAR-8 ovarian, 83.3 µM; in the experiment with COLO 205 colon, 31.1 µM; in the experiment on SW-620 colon it was greater than 100 µM; with SF-268 CNS it was greater than 100 µM; in the experiment with LOX IMVI melanoma it was greater than 100 µM. Besides, the TGI in the experiment with SF-539 CNS is 37.3 µM; with SK-MEL-5 melanoma, 68 µM; in the experiment on KM12 colon, greater than 100 µM; with IGROV1 ovarian, greater than 100 µM; in the experiment on UO-31 renal, greater than 100 µM; in the experiment with HL-60(TB) leukemia, greater than 100 µM.

Consider `O=C1/C(=C\c2ccc([N+](=O)[O-])cc2)N(S(=O)(=O)c2ccccc2)c2ncccc21`, for which the TGI in the experiment on SNB-19 CNS turned out to be 65 µM; in the experiment on 786-0 renal, 37.1 µM; in the experiment with MDA-N, 45.3 µM; in the experiment on HOP-62 NSCLC, 46.2 µM; in the experiment with HCT-116 colon, 43.1 µM; in the experiment on NCI-H23 lung, 42.1 µM. In addition, the TGI came out at 41.2 µM with M14 melanoma; 70.2 µM with OVCAR-8 ovarian; 56.8 µM with COLO 205 colon; 34.2 µM in the experiment with SW-620 colon; 70.7 µM in the experiment with SF-268 CNS; 47.5 µM in the experiment with LOX IMVI melanoma. Moreover, the TGI in the experiment on SF-539 CNS is 55.5 µM; with SK-MEL-5 melanoma, 31.4 µM; in the experiment on KM12 colon, 44.3 µM; in the experiment with IGROV1 ovarian it was 36.8 µM; in the experiment with UO-31 renal it was 38.2 µM; in the experiment on HL-60(TB) leukemia it was 5.4 µM.
